Measured values from patent US20260042755A1, “GPR6 INVERSE AGONISTS” (MapLight Therapeutics, Inc., priority 2022, published 2026).

Key:
[1] = molecular target: T1, GPR6 (Homo sapiens, UniProt P46095); test: GPR6 antagonist functional cAMP assay (LANCE Ultra cAMP TR-FRET, CHO cells stably expressing GPR6); assay type: cell-based
T1 construct: expressed in transfected cells; host or cells: CHO cells
Outline: (§1)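 Read-out was TR-FRET cAMP signal at 665 nm after 1 h at room temperature, following 45 min compound exposure at 37 °C. Assay buffer contained 0.1% BSA and 150 μM Ro 20-1724. Antagonist IC50s were fitted with a 4-parameter logistic against DMSO and reference controls.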

[2] = molecular target: T2, GPR3 (Homo sapiens, UniProt P46089); test: GPR3 antagonist functional cAMP assay (LANCE Ultra cAMP TR-FRET, CHO cells stably expressing GPR3); assay type: cell-based
T2 construct: expressed in transfected cells; host or cells: CHO cells
Outline: as §1

[3] = CHO cells stably expressing GPR6, cAMP assay (Example 24)
[4] = CHO cells stably expressing GPR3, cAMP assay (Example 24)
[5] = CHO cells stably expressing GPR6, cAMP assay
[6] = CHO cells stably expressing GPR3, cAMP assay
[7] = procedure as described in Example 24

T2 sequence (P46089 whole entry, species assumed): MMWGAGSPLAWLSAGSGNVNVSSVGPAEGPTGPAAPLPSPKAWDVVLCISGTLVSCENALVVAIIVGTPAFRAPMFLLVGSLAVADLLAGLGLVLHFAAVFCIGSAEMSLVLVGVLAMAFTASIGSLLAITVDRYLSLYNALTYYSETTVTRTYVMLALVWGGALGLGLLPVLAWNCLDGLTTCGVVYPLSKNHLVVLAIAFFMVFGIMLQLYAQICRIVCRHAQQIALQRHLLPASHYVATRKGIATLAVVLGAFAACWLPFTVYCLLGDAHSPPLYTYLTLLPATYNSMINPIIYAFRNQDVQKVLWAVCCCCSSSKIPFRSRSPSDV
T1 sequence (P46095 whole entry): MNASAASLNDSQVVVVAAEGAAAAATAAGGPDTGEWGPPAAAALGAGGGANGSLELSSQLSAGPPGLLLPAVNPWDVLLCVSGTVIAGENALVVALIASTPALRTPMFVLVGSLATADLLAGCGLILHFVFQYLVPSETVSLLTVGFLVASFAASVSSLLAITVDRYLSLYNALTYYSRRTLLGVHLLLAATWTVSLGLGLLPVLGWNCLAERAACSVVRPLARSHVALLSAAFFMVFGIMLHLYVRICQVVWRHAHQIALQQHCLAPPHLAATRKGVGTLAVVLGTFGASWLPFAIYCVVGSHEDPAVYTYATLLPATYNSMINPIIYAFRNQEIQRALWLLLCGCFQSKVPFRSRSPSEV

IC50 ([1]; procedure of Example 24) [µM]	IC50 ([2]; procedure of Example 24) [µM]	IC50 [1, 3] [µM]	IC50 [2, 4] [µM]	SMILES	also measured
1 to 30	1 to 30			COC(=O)/C(C)=C/c1cc2nc(N3CCC(Oc4ccc(F)cc4F)CC3)c(-c3cnn(C)c3)nc2cn1 [Compound 734, methyl 3-{2-[4-(2,4-difluorophenoxy)-1-piperidyl]-3-(1-methyl-4-pyrazolyl)-1,4,6-triaza-7-naphthyl}methacrylate]	
		1 to 30	1 to 30	CC(=O)N1CCc2nc(N3CCC(Oc4ccc(F)cc4F)CC3)c(-c3cnn(C4CN(C)C4)c3)nc2C1 [Compound 212, 1-{2-[4-(2,4-difluorophenoxy)piperidin-1-yl]-3-[1-(1-methylazetidin-3-yl)-1H-pyrazol-4-yl]-5H,6H,7H,8H-pyrido[3,4-b]pyrazin-6-yl}ethan-1-one]	
				CCn1cc(-c2nc3c(nc2N2CCC(Oc4ccc(F)cc4F)CC2)CCN(C(=O)C2COCCN2)C3)cn1 (stereo not shown) [Compound 491, 3-{2-[4-(2,4-difluorophenoxy)piperidin-1-yl]-3-(1-ethyl-1H-pyrazol-4-yl)-5H,6H,7H,8H-pyrido[3,4-b]pyrazine-6-carbonyl}morpholine]	IC50 [1, 5]: < 0.1 µM; IC50 [2, 6]: 1 to 30 µM
		0.1 to 1	1 to 30	Cn1cc(-c2nc3cnc(C(C)(O)C(C)(C)O)cc3nc2N2CCC(Oc3ccc(F)cc3F)CC2)cn1 (stereo not shown) [Compound 434, 2-(2-(4-(2,4-difluorophenoxy)piperidin-1-yl)-3-(1-methyl-1H-pyrazol-4-yl)pyrido[3,4-b]pyrazin-7-yl)-3-methylbutane-2,3-diol]	
		0.1 to 1	1 to 30	O=C(CN1CCOCC1)N1CCc2nc(N3CCC(Oc4ccc(F)cc4F)CC3)c(-c3cn[nH]c3)nc2C1 [Compound 149, 1-{2-[4-(2,4-difluorophenoxy)piperidin-1-yl]-3-(1H-pyrazol-4-yl)-5H,6H,7H,8H-pyrido[3,4-b]pyrazin-6-yl}-2-(morpholin-4-yl)ethan-1-one]	
0.1 to 1	1 to 30			CCn1cc(-c2nc3c(nc2N2CCC(Oc4ccc(F)cc4F)CC2)CCN(C(=O)C2COC2)C3)cn1 [Compound 366, 4-(2,4-difluorophenoxy)-1-[3-(1-ethyl-1H-pyrazol-4-yl)-6-(oxetane-3-carbonyl)-5H,6H,7H,8H-pyrido[3,4-b]pyrazin-2-yl]piperidine]	
		0.1 to 1	1 to 30	CCn1cc(-c2nc3c(nc2N2CCC(Oc4ccc(F)cc4F)CC2)CCN(C(=O)C2CC(F)(F)CN2C)C3)cn1 (stereo not shown) [Compound 483, (4,4-difluoro-1-methylpyrrolidin-2-yl)(2-(4-(2,4-difluorophenoxy)piperidin-1-yl)-3-(1-ethyl-1H-pyrazol-4-yl)-7,8-dihydropyrido[3,4-b]pyrazin-6(5H)-yl)methanone]	
0.1 to 1	1 to 30			CC(C)(O)C(C)(O)c1cc2nc(-c3cnn(C(F)F)c3)c(N3CCN(Cc4ccccc4F)CC3)nc2cn1 (single isomer, unassigned) [Compound 709]	
				CC(C)(O)C(O)c1cc2nc(-c3cnn(CF)c3)c(N3CCN(Cc4ccc(F)cc4F)CC3)nc2cn1 (single isomer, unassigned) [Compound 603]	IC50 [1, 5]: < 0.1 µM; IC50 [2, 6]: 1 to 30 µM
0.1 to 1	1 to 30			CC(C)(O)[C@](C)(O)c1cc2nc(N3CCN(Cc4ccc(F)cc4F)CC3)c(-c3cnn(C(F)F)c3)nc2cn1 (single isomer, unassigned) [Compound 694]	
1 to 30	1 to 30			CC(=O)N1CCc2nc(N3CCC(COc4ccccc4F)C3)c(-c3cnn(C)c3)nc2C1 (stereo not shown) [Compound 323, 1-(2-{3-[(2-fluorophenoxy)methyl]pyrrolidin-1-yl}-3-(1-methyl-1H-pyrazol-4-yl)-5H,6H,7H,8H-pyrido[3,4-b]pyrazin-6-yl)ethan-1-one]	
1 to 30	1 to 30			Fc1ccc(OC2CC=C(c3nc4ccncc4nc3-c3ncco3)CC2)c(F)c1 (stereo not shown) [Compound 301, 2-{2-[4-(2,4-difluorophenoxy)cyclohex-1-en-1-yl]pyrido[3,4-b]pyrazin-3-yl}-1,3-oxazole]	
				CC1CN(c2nc3ccncc3nc2-c2cn[nH]c2)CCN1Cc1ccc(F)cc1F (single isomer, unassigned) [Compound 49, 2-(4-(2,4-difluorobenzyl)-3-methylpiperazin-1-yl)-3-(1H-pyrazol-4-yl)pyrido[3,4-b]pyrazine]	IC50 [1, 7]: 1 to 30 µM; IC50 [2, 7]: 1 to 30 µM
0.1 to 1	1 to 30			CCn1cc(-c2nc3cnc(C(C)(O)C(C)(C)O)cc3nc2N2CCN(Cc3ccc(F)cc3F)CC2)cn1 (stereo not shown) [Compound 654, 2-(2-{4-[(2,4-difluorophenyl)methyl]-1-piperazinyl}-3-(1-ethyl-4-pyrazolyl)-1,4,6-triaza-7-naphthyl)-3-methyl-2,3-butanediol]	
		1 to 30	1 to 30	COc1cccc(OC2CCN(c3nc4c(nc3-c3cnn(C)c3)CN(C(C)=O)CC4)CC2)c1F [Compound 427, 1-{2-[4-(2-fluoro-3-methoxyphenoxy)piperidin-1-yl]-3-(1-methyl-1H-pyrazol-4-yl)-5H,6H,7H,8H-pyrido[3,4-b]pyrazin-6-yl}ethan-1-one]	
< 0.1	0.1 to 1			CCn1cc(-c2nc3c(nc2N2CCC(Oc4ccc(F)cc4F)CC2)CCN(C(=O)COC)C3)cn1 [Compound 275, 1-{2-[4-(2,4-difluorophenoxy)piperidin-1-yl]-3-(1-ethyl-1H-pyrazol-4-yl)-5H,6H,7H,8H-pyrido[3,4-b]pyrazin-6-yl}-2-methoxyethan-1-one]	
				CC(=O)N1CCc2nc(N3CCC(Oc4ccc(F)cc4F)CC3)c(-c3cncnc3)nc2C1 [Compound 34, 1-{2-[4-(2,4-difluorophenoxy)piperidin-1-yl]-3-(pyrimidin-5-yl)-5H,6H,7H,8H-pyrido [3,4-b]pyrazin-6-yl}ethan-1-one]	IC50 [1, 7]: 1 to 30 µM; IC50 [2, 7]: 1 to 30 µM
		1 to 30	1 to 30	CC(=O)N1CCC=C(c2nc3c(nc2N2CCC(Oc4ccc(F)cc4F)CC2)CCN(C(C)=O)C3)C1 [Compound 71, 1-[3-(1-acetyl-1,2,5,6-tetrahydropyridin-3-yl)-2-[4-(2,4-difluorophenoxy)piperidin-1-yl]-5H,6H,7H,8H-pyrido[3,4-b]pyrazin-6-yl]ethan-1-one]	
		0.1 to 1	1 to 30	CCn1cc(-c2nc3c(nc2N2CCC(Oc4cc(Cl)ccc4Cl)CC2)CCN(C(C)=O)C3)cn1 [Compound 400, 1-{2-[4-(2,5-dichlorophenoxy)piperidin-1-yl]-3-(1-ethyl-1H-pyrazol-4-yl)-5H,6H,7H,8H-pyrido[3,4-b]pyrazin-6-yl}ethan-1-one]	
0.1 to 1	1 to 30			CC(C)(O)[C@@](C)(O)c1cc2nc(N3CCN(Cc4ccc(F)cc4F)CC3)c(-c3cnn(CF)c3)nc2cn1 (single isomer, unassigned) [Compound 650]	
< 0.1	1 to 30			CCCn1cc(-c2nc3c(nc2N2CCC(Oc4ccc(F)cc4F)CC2)CCN(C(C)=O)C3)cn1 [Compound 312, 1-{2-[4-(2,4-difluorophenoxy)piperidin-1-yl]-3-(1-propyl-1H-pyrazol-4-yl)-5H,6H,7H,8H-pyrido[3,4-b]pyrazin-6-yl}ethan-1-one]	
0.1 to 1	1 to 30			CCn1cc(-c2nc3c(nc2N2CCC(Oc4ccc(F)cc4F)CC2)CCN(C[C@H](O)CO)C3)cn1 [Compound 305, (2S)-3-{2-[4-(2,4-difluorophenoxy)piperidin-1-yl]-3-(1-ethyl-1H-pyrazol-4-yl)-5H,6H,7H,8H-pyrido[3,4-b]pyrazin-6-yl}propane-1,2-diol]	
0.1 to 1	1 to 30			Cn1cc(-c2nc3cc(C(C)(O)CO)ncc3nc2N2CCC(Oc3ccc(F)cc3F)CC2)cn1 (single isomer, unassigned) [Compound 692]	
1 to 30	1 to 30			COc1ccc(CNc2nc(-c3nc4c(nc3N3CCC(Cc5cc(F)ccc5F)CC3)CCN(C(C)=O)C4)ccc2F)cc1 [Compound 701, 1-(2-{4-[(2,5-difluorophenyl)methyl]-1-piperidyl}-3-(5-fluoro-6-{ [(p-methoxyphenyl)methyl]amino}-2-pyridyl)-5,6,7,8-tetrahydro-1,4,6-triaza-6-naphthyl)-1-ethanone]	
		0.1 to 1	1 to 30	CC(=O)N1CCc2nc(N3CCN(Cc4ccccc4F)CC3)c(-c3cnn(C)c3)nc2C1 [Compound 252, 1-(2-{4-[(2-fluorophenyl)methyl]piperazin-1-yl}-3-(1-methyl-1H-pyrazol-4-yl)-5H,6H,7H,8H-pyrido[3,4-b]pyrazin-6-yl)ethan-1-one]	
0.1 to 1	1 to 30			Cn1cc(-c2nc3c(Cl)nccc3nc2N2CCC(Oc3ccc(F)cc3F)CC2)cn1 [Compound 328, 1-[5-chloro-3-(1-methyl-1H-pyrazol-4-yl)pyrido[3,4-b]pyrazin-2-yl]-4-(2,4-difluorophenoxy)piperidine]	
0.1 to 1	1 to 30			COC1CCC(c2nc3c(nc2N2CCC(Oc4ccc(F)cc4F)CC2)CCN(C(C)=O)C3)CC1 (stereo not shown) [Compound 373, 1-(2-(4-(2,4-difluorophenoxy)piperidin-1-yl)-3-(4-methoxycyclohexyl)-7,8-dihydropyrido[3,4-b]pyrazin-6(5H)-yl)ethan-1-one]	
1 to 30	1 to 30			COC1CCC(c2nc3c(nc2N2CCC(Oc4ccc(F)cc4F)CC2)CCN(C(C)=O)C3)C1 (stereo not shown) [Compound 279, 1-{2-[4-(2,4-difluorophenoxy)piperidin-1-yl]-3-(3-methoxycyclopentyl)-5H,6H,7H,8H-pyrido[3,4-b]pyrazin-6-yl}ethan-1-one]	
		1 to 30	1 to 30	Fc1ccc(OC2CCN(c3nc4c(nc3-c3cn[nH]c3)CNCC4)CC2)c(F)c1 [Compound 124, 4-(2,4-difluorophenoxy)-1-[3-(1H-pyrazol-4-yl)-5H,6H,7H,8H-pyrido[3,4-b]pyrazin-2-yl]piperidine]	
